Results from EP0385381A2, “Inhibitor of restenosis after percutaneous transluminal coronary angioplasty” (DAIICHI PHARMACEUTICAL CO., LTD., priority 1989, dated 1990).
Structures can show the parent of a compound that is named as a salt.

Tested on: post-PTCA restenosis
Test: Clinical study of inhibition of post-PTCA restenosis, evaluated from coronary angiographic findings
Assay type: in vivo, patients with angina pectoris
Procedure: In 18 patients with angina pectoris in whom elective PTCA was indicated, 6-(1-imidazolylmethyl)- 5,6,7,8-tetrahydronaphthalene-2-carboxylic acid hydrochloride hemihydrate (hereinafter, referred to as Compound A) was administered orally in a dose of 200 mg three times a day after each meal (600 mg/day) pre-angioplasty, beginning about three days before PTCA, and post angioplasty for 3 months (treated group). Coronary angiography was performed before, immediately after, and 3 months after PTCA. Based on the coronary angiographic findings, inhibition of restenosis of the right coronary artery, left anterior descending artery and left circumflex artery was evaluated, by site of lesion, according to the criteria in Table 1 shown below. Further, based on the results of the evaluation, overall efficacy evaluation by individual patient was made.
In regard to luminal diameter: • 1. Excellent post-angioplasty course: unchanged or expanded • 2. Good post-angioplasty course: a decrease in luminal diameter of less than 50% • 3. Poor post-angioplasty course: a decrease in luminal diameter of 50% or more and less than 100% • 4. Worse post-angioplasty course: a decrease in luminal diameter of 100% or progression of stenosis as compared with pre-PTCA condition
As controls (control group), placebo was similarly administered to 15 patients with angina pectoris in whom effective PTCA was indicated and coronary angiography was performed before and after PTCA.
In both of the treated and control groups, calcium antagonists, viz. nifedipine and diltiazem, antianginal drugs, viz. ISDN and nicorandil, and antiarteriosclerotic agents, viz. elastase, etc. were used concurrently as necessary as shown in Table 2 below. However, there was no significant difference (χ² test) between the two groups in the use of concomitant drugs, as in other patient characteristics.

[1] = Left Anterior Descending Artery, number of lesions rated (of 9), 600 mg/day oral, 3 months after PTCA
[2] = Left Circumflex Artery, number of lesions rated (of 11), 600 mg/day oral, 3 months after PTCA
[3] = Right Coronary Artery, number of lesions rated (of 8), 600 mg/day oral, 3 months after PTCA
[4] = Total, number of lesions rated (of 28), Wilcoxon test P=0.100 vs control group
[5] = number of patients rated (of 18), Wilcoxon test P=0.010 vs control group

O=C(O)c1ccc2c(c1)CCC(Cn1ccnc1)C2 (stereo not drawn) [Compound A, 6-(1-imidazolylmethyl)-5,6,7,8-tetrahydronaphthalene-2-carboxylic acid hydrochloride hemihydrate]
Overall Efficacy Evaluation, by Individual Patient: Excellent, Cumulative % (18 patients): (38.9%)
Overall Efficacy Evaluation, by Individual Patient: Good, Cumulative % (18 patients, Excellent plus Good): (77.8%)
Evaluation of coronary angiographic findings by site of lesion: Excellent [1]: 4
Evaluation of coronary angiographic findings by site of lesion: Good [1]: 3
Evaluation of coronary angiographic findings by site of lesion: Poor [1]: 1
Evaluation of coronary angiographic findings by site of lesion: Worse [1]: 1
Evaluation of coronary angiographic findings by site of lesion: Excellent [2]: 2
Evaluation of coronary angiographic findings by site of lesion: Good [2]: 7
Evaluation of coronary angiographic findings by site of lesion: Poor [2]: 1
Evaluation of coronary angiographic findings by site of lesion: Worse [2]: 1
Evaluation of coronary angiographic findings by site of lesion: Excellent [3]: 3
Evaluation of coronary angiographic findings by site of lesion: Good [3]: 4
Evaluation of coronary angiographic findings by site of lesion: Poor [3]: 0
Evaluation of coronary angiographic findings by site of lesion: Worse [3]: 1
Evaluation of coronary angiographic findings by site of lesion: Excellent, Cumulative % (Total of 28 lesions): (32.1%)
Evaluation of coronary angiographic findings by site of lesion: Good, Cumulative % (Total of 28 lesions, Excellent plus Good): (83.1%)
Evaluation of coronary angiographic findings by site of lesion: Excellent [4]: 9
Evaluation of coronary angiographic findings by site of lesion: Good [4]: 14
Evaluation of coronary angiographic findings by site of lesion: Poor [4]: 2
Evaluation of coronary angiographic findings by site of lesion: Worse [4]: 3
Overall Efficacy Evaluation, by Individual Patient: Excellent (number of patients rated (of 18), Wilcoxon test P=0.010, Fisher test (excellent ratings) P=0.009 vs control group): 7
Overall Efficacy Evaluation, by Individual Patient: Good [5]: 7
Overall Efficacy Evaluation, by Individual Patient: Poor [5]: 3
Overall Efficacy Evaluation, by Individual Patient: Worse [5]: 1
